Test results reported in patent US6096863A, “Self-assembling amphiphiles for construction of peptide secondary structures” (Regents of the University of Minnesota, priority 1996, dated 2000).
Starred links: 1 amine or outer side, 2 acyl side, 3 side chain; linkers in the order of their positions; H or OH if unused. Non-standard residues stand in square brackets, D forms with d. Residues, ends and D or L forms follow the SMILES beside them. *: point of attachment. X2 = CCCCCCCCCCCCCCCCOC(=O)CC[C@H](N*)C(=O)OCCCCCCCCCCCCCCCC; X1 = CCCCCCCCCCCCCCOC(=O)CC[C@H](N*)C(=O)OCCCCCCCCCCCCCC; X3 = CCCCCCCCCCCCOC(=O)CC[C@H](N*)C(=O)OCCCCCCCCCCCC; Hyp = O=C(O)[C@@H]1C[C@@H](O)CN1; Suc = O=C(CCC(=O)[*:2])[*:1]

Tests used:
[1] = Circular dichroism spectroscopy; type: physicochemical; details: 25° C., 0.5 mM in H2O, λ=225 nm
Procedure: Spectra were recorded on a JASCO J-710 spectropolarimeter using a thermostated 0.1 mm quartz cell. Thermal transition curves were obtained by recording the molar ellipticity ([θ]) in the range of 10-80° C. at λ=225 nm. The peptide and peptide-amphiphile concentrations were 0.5 mM in H2 O at 25° C.

[2] = Surface pressure-area isotherms of monolayers at the air-water interface; type: physicochemical; details: for limiting surface area (monolayer reaches maximum surface pressure and collapses): 22° C., pure water subphase
Procedure: All isotherms were obtained at 22° C. after spreading a peptide amphiphile solution in hexane-CHCl3 -methanol (5:4:1) over a pure water subphase. After 15 minutes, the monolayer was compressed laterally with constant speed for 10 mm/minute on a computerized KSV LB5000 Langmuir-Blodgett instrument and surface pressure detected using film balance with a platinum Wilhemy plate.

melanoma cell = details: cited from earlier work

Compound | CD spectrum, positive ellipticity (poly-Pro II / triple-helix-like structure) [1] | limiting surface area (monolayer reaches maximum surface pressure and collapses) [2] | melanoma cell adhesion and spreading (melanoma cell) | surface activity / formation of monolayers at the air-water interface [2]
CCCCCCCCCCCCOC(=O)CC[C@H](NC(=O)CCC(=O)NCC(=O)N[C@H](C(=O)N[C@@H](CCCCN)C(=O)NCC(=O)N[C@@H](CC(=O)O)C(=O)N[C@@H](CCCCN)C(=O)NCC(=O)N[C@@H](CC(N)=O)C(=O)N1CCC[C@H]1C(=O)NCC(=O)N[C@@H](Cc1c[nH]c2ccccc12)C(=O)N1CCC[C@H]1C(=O)NCC(=O)N[C@@H](C)C(=O)N1CCC[C@H]1C(N)=O)C(C)C)C(=O)OCCCCCCCCCCCC [(C12)2 -Glu-C2-[IV-H1]] ({X3-Suc}-GVKGDKGNPGWPGAP-NH2) | no positive ellipticity | – | – | –
CCCCCCCCCCCCCCOC(=O)CC[C@H](NC(=O)CCC(=O)NCC(=O)N[C@H](C(=O)N[C@@H](CCCCN)C(=O)NCC(=O)N[C@@H](CC(=O)O)C(=O)N[C@@H](CCCCN)C(=O)NCC(=O)N[C@@H](CC(N)=O)C(=O)N1CCC[C@H]1C(=O)NCC(=O)N[C@@H](Cc1c[nH]c2ccccc12)C(=O)N1CCC[C@H]1C(=O)NCC(=O)N[C@@H](C)C(=O)N1CCC[C@H]1C(=O)NCC(=O)N1CCC[C@H]1C(=O)N1C[C@H](O)C[C@H]1C(=O)NCC(=O)N1CCC[C@H]1C(=O)N1C[C@H](O)C[C@H]1C(=O)NCC(=O)N1CCC[C@H]1C(=O)N1C[C@H](O)C[C@H]1C(=O)NCC(=O)N1CCC[C@H]1C(=O)N1C[C@H](O)C[C@H]1C(N)=O)C(C)C)C(=O)OCCCCCCCCCCCCCC [(C14)2 -Glu-C2 -[IV-H1]-(Gly-Pro-Hyp)4] ({X1-Suc}-GVKGDKGNPGWPGAPGP[Hyp]GP[Hyp]GP[Hyp]GP[Hyp]-NH2) | – | 0.6 nm^2 /molecule | – | –
CCCCCCCCCCCCCCCCOC(=O)CC[C@H](NC(=O)CCC(=O)NCC(=O)N1CCC[C@H]1C(=O)N1C[C@H](O)C[C@H]1C(=O)NCC(=O)N1CCC[C@H]1C(=O)N1C[C@H](O)C[C@H]1C(=O)NCC(=O)N1CCC[C@H]1C(=O)N1C[C@H](O)C[C@H]1C(=O)NCC(=O)N1CCC[C@H]1C(=O)N1C[C@H](O)C[C@H]1C(=O)NCC(=O)N[C@H](C(=O)N[C@@H](CCCCN)C(=O)NCC(=O)N[C@@H](CC(=O)O)C(=O)N[C@@H](CCCCN)C(=O)NCC(=O)N[C@@H](CC(N)=O)C(=O)N1CCC[C@H]1C(=O)NCC(=O)N[C@@H](Cc1c[nH]c2ccccc12)C(=O)N1CCC[C@H]1C(=O)NCC(=O)N[C@@H](C)C(=O)N1CCC[C@H]1C(N)=O)C(C)C)C(=O)OCCCCCCCCCCCCCCCC [(C16)2 -Glu-C2 -(Gly-Pro-Hyp)4 -[IV-H1]] ({X2-Suc}-GP[Hyp]GP[Hyp]GP[Hyp]GP[Hyp]GVKGDKGNPGWPGAP-NH2) | – | 0.6 nm^2 /molecule | – | –
CC(C)[C@H](NC(=O)CN)C(=O)N[C@@H](CCCCN)C(=O)NCC(=O)N[C@@H](CC(=O)O)C(=O)N[C@@H](CCCCN)C(=O)NCC(=O)N[C@@H](CC(N)=O)C(=O)N1CCC[C@H]1C(=O)NCC(=O)N[C@@H](Cc1c[nH]c2ccccc12)C(=O)N1CCC[C@H]1C(=O)NCC(=O)N[C@@H](C)C(=O)N1CCC[C@H]1C(N)=O [[IV-H1]] (H-GVKGDKGNPGWPGAP-NH2) | did not show any positive ellipticity | – | promote melanoma cell adhesion and spreading | not surface active
